Experimental data from patent US11708369B2, “Heteroaromatic compounds having activity against RSV” (Janssen Sciences Ireland Unlimited Company, priority 2018, dated 2023).

Tests used:
in vitro = settings: human
Experimental: The wells contain 0.05% DMSO per volume. Cells were incubated at 37° C. in a 5% CO2 atmosphere. […] In parallel, compounds were incubated for three days in a set of white 384-well microtiter plates (Corning) and the cytotoxicity of compounds in HeLa cells was determined by measuring the ATP content of the cells using the ATPlite kit (Perkin Elmer, Zaventem, Belgium) according to the manufacturer's instructions. The CC50 was defined as the 50% concentration for cytotoxicity.

rgRSV224 virus = test: Antiviral activity: rgRSV224 (GFP) replication in HeLa cells; settings: human respiratory syncytial virus, 72 h, read-out: RSV HELA EC50
Experimental: Black 384-well clear-bottom microtiter plates (Corning, Amsterdam, The Netherlands) were filled via acoustic drop ejection using the echo liquid handler (Labcyte, Sunnyvale, Calif.). 200 nL of compound stock solutions (100% DMSO) were transferred to the assay plates. 9 serial 4-fold dilutions of compound were made, creating per quadrant the same compound concentration. The assay was initiated by adding 10 μL of culture medium to each well (RPMI medium without phenol red, 10% FBS-heat inactivated, 0.04% gentamycin (50 mg/mL). All addition steps are done by using a multidrop dispenser (Thermo Scientific, Erembodegem, Belgium). Next, rgRSV224 virus (MOI=1) diluted in culture medium was added to the plates. rgRSV224 virus is an engineered virus that includes an additional GFP gene (Hallak L K, Spillmann D, Collins P L, Peeples M E. Glycosaminoglycan sulfation requirements for respiratory syncytial virus infection; Journal of virology (2000), 74(22), 10508-13) and was in-licensed from the NIH (Bethesda, Md., USA). Finally, 20 μL of a HeLa cell suspension (3,000 cells/well) were plated. Medium, virus- and mock-infected controls were included in each test. The wells contain 0.05% DMSO per volume. Cells were incubated at 37° C. in a 5% CO2 atmosphere. Three days post-virus exposure, viral replication was quantified by measuring GFP expression in the cells by an in house developed MSM laser microscope (Tibotec, Beerse, Belgium). The EC50 was defined as the 50% inhibitory concentration for GFP expression. In parallel, compounds were incubated for three days in a set of white 384-well microtiter plates (Corning) and the cytotoxicity of compounds in HeLa cells was determined by measuring the ATP content of the cells using the ATPlite kit (Perkin Elmer, Zaventem, Belgium) according to the manufacturer's instructions. The CC50 was defined as the 50% concentration for cytotoxicity.

Row | Structure (SMILES) | CC50 at 3 days (in vitro) [µM] | EC50 (rgRSV224 virus) [µM]
1 | C[C@@H]1c2ccccc2CCN1C(=O)c1cc(C2CC2)n2c(F)c(-c3ccc([C@@H]4C[C@H]4C(=O)O)cc3F)nc2n1 (mixture of isomers) [Compound 25, trans-2-(4-{5-cyclopropyl-3-fluoro-7-[(1R)-1-methyl-1,2,3,4-tetrahydroisoquinoline-2-carbonyl]imidazo[1,2-a]pyrimidin-2-yl}-3-fluorophenyl)cyclopropane-1-carboxylic Acid] | 22.3 | 0.112
2 | C[C@@H]1c2ccccc2CCN1C(=O)c1cc(C2CC2)n2c(F)c(-c3ccc([C@H]4C[C@H]4C(=O)O)cc3F)nc2n1 (mixture of isomers) [Compound 26, cis-2-(4-{5-cyclopropyl-3-fluoro-7-[(1R)-1-methyl-1,2,3,4-tetrahydroisoquinoline-2-carbonyl]imidazo[1,2-a]pyrimidin-2-yl}-3-fluorophenyl)cyclopropane-1-carboxylic Acid] | 77.2 | 3.42
3 | CCc1cc(C(=O)N2CCc3ccccc3[C@H]2C)cc2cc(-c3ccc(C4C[C@H]4C(=O)O)cc3F)nn12 (relative stereo) [Compound 4, Trans-2-(4-{7-ethyl-5-[(1R)-1-methyl-1,2,3,4-tetrahydroisoquinoline-2-carbonyl]pyrazolo[1,5-a]pyridin-2-yl}-3-fluorophenyl)cyclopropane-1-carboxylic Acid] | 57.6 | 0.219
4 | CCc1cc(C(=O)N2CCc3ccccc3[C@H]2C)c(OC)c2cc(-c3ccc(C4C[C@H]4C(=O)O)cc3F)nn12 (relative stereo) [Compound 5, trans-2-(4-{7-Ethyl-4-methoxy-5-[(1R)-1-methyl-1,2,3,4-tetrahydroisoquinoline-2-carbonyl]pyrazolo[1,5-a]pyridin-2-yl}-3-fluorophenyl)cyclopropane-1-carboxylic Acid] | 47.2 | 1.7
5 | C[C@@H]1c2ccccc2CCN1C(=O)c1cc(C2CC2)n2nc(-c3ccc(C4C[C@H]4C(=O)O)cc3F)cc2c1F (relative stereo) [Compound 6, trans-2-(4-{7-Cyclopropyl-4-fluoro-5-[(1R)-1-methyl-1,2,3,4-tetrahydroisoquinoline-2-carbonyl]pyrazolo[1,5-a]pyridin-2-yl}-3-fluorophenyl)cyclopropane-1-carboxylic Acid] | 50.2 | 0.09
6 | C[C@@H]1c2ccccc2CCN1C(=O)c1cc(C2CC2)n2nc(-c3ccc(C4C[C@H]4C(=O)O)cc3F)nc2c1 (relative stereo) [Compound 16, trans-2-(4-{5-Cyclopropyl-7-[(1R)-1-methyl-1,2,3,4-tetrahydroisoquinoline-2-carbonyl]-[1,2,4]triazolo[1,5-a]pyridin-2-yl}-3-fluorophenyl)cyclopropane-1-carboxylic Acid] | 79.4 | 0.182
7 | C[C@@H]1c2ccccc2CCN1C(=O)c1cc(C2CC2)n2nc(-c3ccc(C4C[C@@H]4C(=O)O)cc3F)nc2c1 (relative stereo) [Compound 17, cis-2-(4-{5-Cyclopropyl-7-[(1R)-1-methyl-1,2,3,4-tetrahydroisoquinoline-2-carbonyl]-[1,2,4]triazolo[1,5-a]pyridin-2-yl}-3-fluorophenyl)cyclopropane-1-carboxylic Acid] | > 100 | 2.01
8 | C[C@@H]1c2ccccc2CCN1C(=O)c1cc(C2CC2)n2nc(-c3ccc(C4C[C@H]4C(N)=O)cc3F)nc2c1 (relative stereo) [Compound 18, trans-2-(4-{5-Cyclopropyl-7-[(1R)-1-methyl-1,2,3,4-tetrahydroisoquinoline-2-carbonyl]-[1,2,4]triazolo[1,5-a]pyridin-2-yl}-3-fluorophenyl)cyclopropane-1-carboxamide] | 47.9 | 0.178
9 | C[C@@H]1c2ccccc2CCN1C(=O)c1cc(C2CC2)n2cc(-c3ccc(C4C[C@H]4C(=O)O)cc3F)nc2n1 (relative stereo) [Compound 24, trans-2-(4-{5-Cyclopropyl-7-[(1R)-1-methyl-1,2,3,4-tetrahydroisoquinoline-2-carbonyl]imidazo[1,2-a]pyrimidin-2-yl}-3-fluorophenyl)cyclopropane-1-carboxylic Acid] | 69.7 | 0.105
10 | CCc1cc(C(=O)N2CCc3ccccc3[C@H]2C)cc2cc(-c3ccc([C@H]4C[C@@H]4C(=O)O)cc3F)cn12 [Compound 1, (1S,2S)-2-(4-{5-Ethyl-7-[(1R)-1-methyl-1,2,3,4-tetrahydroisoquinoline-2-carbonyl]indolizin-2-yl}-3-fluorophenyl)cyclopropane-1-carboxylic Acid] | 45.1 | 0.195
11 | CCc1cc(C(=O)N2CCc3ccccc3[C@H]2C)cc2cc(-c3ccc([C@H]4C[C@@H]4C(N)=O)cc3F)cn12 [Compound 2] | 52.7 | 0.344
12 | CCc1cc(C(=O)N2CCc3ccccc3[C@H]2C)cc2cc(-c3ccc(N4CC[C@H](C(=O)O)C4)cc3F)cn12 [Compound 3, (3S)-1-(4-{5-Ethyl-7-[(1R)-1-methyl-1,2,3,4-tetrahydroisoquinoline-2-carbonyl]indolizin-2-yl}-3-fluorophenyl)pyrrolidine-3-carboxylic Acid] | 44 | 0.218
13 | C[C@@H]1c2ccccc2CCN1C(=O)c1cc(C2CC2)n2nc(-c3ccc(N4CC[C@H](C(=O)O)C4)cc3F)cc2c1 [Compound 7, (3S)-1-(4-{7-Cyclopropyl-5-[(1R)-1-methyl-1,2,3,4-tetrahydroisoquinoline-2-carbonyl]pyrazolo[1,5-a]pyridin-2-yl}-3-fluorophenyl)pyrrolidine-3-carboxylic Acid] | 48 | 0.064
14 | C[C@@H]1c2ccccc2CCN1C(=O)c1cc(C2CC2)n2nc(-c3ccc(N4CC[C@H](C(N)=O)C4)cc3F)cc2c1 [Compound 8, (3S)-1-(4-{7-Cyclopropyl-5-[(1R)-1-methyl-1,2,3,4-tetrahydroisoquinoline-2-carbonyl]pyrazolo[1,5-a]pyridin-2-yl}-3-fluorophenyl)pyrrolidine-3-carboxamide] | 53.4 | 0.054
15 | CCc1cc(C(=O)N2CCc3ccccc3[C@H]2C)c(C)c2cc(-c3ccc(N4CC[C@H](C(=O)O)C4)cc3F)nn12 [Compound 9, (3S)-1-(4-{7-Ethyl-4-methyl-5-[(1R)-1-methyl-1,2,3,4-tetrahydroisoquinoline-2-carbonyl]pyrazolo[1,5-a]pyridin-2-yl}-3-fluorophenyl)pyrrolidine-3-carboxylic Acid] | 50.6 | 0.596
16 | C[C@@H]1c2ccccc2CCN1C(=O)c1cc(C2CC2)n2nc(-c3ccc(N4CC[C@H](C(N)=O)C4)cc3F)cc2c1F [Compound 10, (3S)-1-(4-{7-Cyclopropyl-4-fluoro-5-[(1R)-1-methyl-1,2,3,4-tetrahydroisoquinoline-2-carbonyl]pyrazolo[1,5-a]pyridin-2-yl}-3-fluorophenyl)pyrrolidine-3-carboxamide] | 40.4 | 0.062
17 | C[C@@H]1c2ccccc2CCN1C(=O)c1cc(C2CC2)n2nc(-c3ccc(N4CC[C@H](C(=O)O)C4)cc3F)nc2c1 [Compound 19, (3S)-1-(4-{5-Cyclopropyl-7-[(1R)-1-methyl-1,2,3,4-tetrahydroisoquinoline-2-carbonyl]-[1,2,4]triazolo[1,5-a]pyridin-2-yl}-3-fluorophenyl)pyrrolidine-3-carboxylic Acid] | 60.9 | 0.1
18 | C[C@@H]1c2ccccc2CCN1C(=O)c1cc(C2CC2)n2nc(-c3ccc(N4CC[C@H](C(N)=O)C4)cc3F)nc2c1 [Compound 20, (3S)-1-(4-{5-Cyclopropyl-7-[(1R)-1-methyl-1,2,3,4-tetrahydroisoquinoline-2-carbonyl]-[1,2,4]triazolo[1,5-a]pyridin-2-yl}-3-fluorophenyl)pyrrolidine-3-carboxamide] | 45.6 | 0.102
19 | C[C@@H]1c2ccccc2CCN1C(=O)c1cc2cc(-c3ccc(N4CC[C@H](C(=O)O)C4)cc3F)nn2c(C2CC2)n1 [Compound 21, (3S)-1-(4-{7-Cyclopropyl-5-[(1R)-1-methyl-1,2,3,4-tetrahydroisoquinoline-2-carbonyl]pyrazolo[1,5-c]pyrimidin-2-yl}-3-fluorophenyl)pyrrolidine-3-carboxylic Acid] | 29.8 | 0.564
20 | C[C@@H]1c2ccccc2CCN1C(=O)c1cc2cc(-c3ccc(N4CC[C@H](C(N)=O)C4)cc3F)nn2c(C2CC2)n1 [Compound 22, (3S)-1-(4-{7-Cyclopropyl-5-[(1R)-1-methyl-1,2,3,4-tetrahydroisoquinoline-2-carbonyl]pyrazolo[1,5-c]pyrimidin-2-yl}-3-fluorophenyl)pyrrolidine-3-carboxamide] | > 100 | 0.87
21 | CNC(=O)[C@H]1CCN(c2ccc(-c3cc4cc(C(=O)N5CCc6ccccc6[C@H]5C)nc(C5CC5)n4n3)c(F)c2)C1 [Compound 23, (3S)-1-(4-{7-Cyclopropyl-5-[(1R)-1-methyl-1,2,3,4-tetrahydroisoquinoline-2-carbonyl]pyrazolo[1,5-c]pyrimidin-2-yl}-3-fluorophenyl)-N-methylpyrrolidine-3-carboxamide] | > 100 | 0.882
22 | C[C@@H]1c2ccccc2CCN1C(=O)c1cc(C2CC2)n2cc(-c3ccc(N4CC[C@H](C(=O)O)C4)cc3F)nc2n1 [Compound 27, (3S)-1-(4-{5-Cyclopropyl-7-[(1R)-1-methyl-1,2,3,4-tetrahydroisoquinoline-2-carbonyl]imidazo[1,2-a]pyrimidin-2-yl}-3-fluorophenyl)pyrrolidine-3-carboxylic Acid] | 40.4 | 0.159
23 | C[C@@H]1c2ccccc2CCN1C(=O)c1cc(C2CC2)n2cc(-c3ccc(N4CC[C@H](C(N)=O)C4)cc3F)nc2n1 [Compound 28, (3S)-1-(4-{5-Cyclopropyl-7-[(1R)-1-methyl-1,2,3,4-tetrahydroisoquinoline-2-carbonyl]imidazo[1,2-a]pyrimidin-2-yl}-3-fluorophenyl)pyrrolidine-3-carboxamide] | 22.3 | 0.112
